According to US10800792B2, “Inhibitors of Bruton's tyrosine kinase and method of their use” (JANSSEN PHARMACEUTICA NV, priority 2015, dated 2020):

Molecular target: unphosphorylated-BTK kinase domain (UP-BTK), GST-tagged human BTK (389-659aa) (Homo sapiens (Human), UniProt Q06187)
Assay: BTK kinase Lanthascreen binding assay
Details: Lanthascreen tracer competition, 60 minutes incubation; pIC50 = negative log of the IC50 in molar
Method in brief: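 Tracer-displacement binding assay against the non-phosphorylated enzyme, read by Lanthascreen. Reported: pIC50.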

Sequence of unphosphorylated-BTK kinase domain (UP-BTK), GST-tagged human BTK (389-659aa) (Q06187 389-659): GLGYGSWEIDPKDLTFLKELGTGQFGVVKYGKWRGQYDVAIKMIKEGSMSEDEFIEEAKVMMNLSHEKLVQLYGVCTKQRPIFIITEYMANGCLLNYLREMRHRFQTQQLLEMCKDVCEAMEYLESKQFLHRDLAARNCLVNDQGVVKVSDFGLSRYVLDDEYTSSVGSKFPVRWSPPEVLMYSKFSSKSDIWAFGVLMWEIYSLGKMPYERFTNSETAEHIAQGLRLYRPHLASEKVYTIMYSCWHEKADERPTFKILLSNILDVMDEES

Row | SMILES | BTK_I_binding pIC50
1 | C=CC(=O)N1C[C@@H](O)[C@@H](NC(=O)c2sc3nccc4c3c2NC(=O)N4c2ccc(OC(C)C)cc2C)C1 [Example 614, N-((3S,4R)-1-Acryloyl-4-hydroxypyrrolidin-3-yl)-5-(4-isopropoxy-2-methylphenyl)-4-oxo-4,5-dihydro-3H-1-thia-3,5,8-triazaacenaphthylene-2-carboxamide] | 6.1
2 | O=C(N[C@@H]1CCCNC1)c1sc2nccc3c2c1NC(=O)N3c1cccc(OC2CCCCC2)c1 [Example 616, (R)-5-(3-(Cyclohexyloxy)phenyl)-4-oxo-N-(piperidin-3-yl)-4,5-dihydro-3H-1-thia-3,5,8-triazaacenaphthylene-2-carboxamide] | 6.1
3 | O=C(N[C@@H]1CCCNC1)c1sc2nccc3c2c1NC(=O)N3c1cncc(-c2ccccc2)c1 [Example 618, (R)-4-Oxo-5-(5-phenylpyridin-3-yl)-N-(piperidin-3-yl)-4,5-dihydro-3H-1-thia-3,5,8-triazaacenaphthylene-2-carboxamide] | 6.0
4 | C=CC(=O)N1CCC[C@@H](NC(=O)c2sc3nccc4c3c2NC(=O)N4c2cnc(OC)nc2)C1 [Example 619, (R)—N-(1-Acryloylpiperidin-3-yl)-5-(2-methoxypyrimidin-5-yl)-4-oxo-4,5-dihydro-3H-1-thia-3,5,8-triazaacenaphthylene-2-carboxamide] | <6
5 | O=C(N[C@@H]1CCCNC1)c1sc2nccc3c2c1NC(=O)N3c1cccc(OC(F)(F)F)c1 [Example 620, (R)-4-Oxo-N-(piperidin-3-yl)-5-(3-(trifluoromethoxy)phenyl)-4,5-dihydro-3H-1-thia-3,5,8-triazaacenaphthylene-2-carboxamide] | <6
6 | O=C(N[C@@H]1CCCNC1)c1sc2nccc3c2c1NC(=O)N3c1cccc(OC2CCC2)c1 [Example 621, (R)-5-(3-Cyclobutoxyphenyl)-4-oxo-N-(piperidin-3-yl)-4,5-dihydro-3H-1-thia-3,5,8-triazaacenaphthylene-2-carboxamide] | <6
7 | O=C(N[C@@H]1CCCNC1)c1sc2nccc3c2c1NC(=O)N3c1cccc(-c2ccccn2)c1 [Example 622, (R)-4-Oxo-N-(piperidin-3-yl)-5-(3-(pyridin-2-yl)phenyl)-4,5-dihydro-3H-1-thia-3,5,8-triazaacenaphthylene-2-carboxamide] | <6
8 | O=C(N[C@@H]1CCCNC1)c1sc2nccc3c2c1NC(=O)N3c1cccc(-c2ccccc2)n1 [Example 623, (R)-4-Oxo-5-(6-phenylpyridin-2-yl)-N-(piperidin-3-yl)-4,5-dihydro-3H-1-thia-3,5,8-triazaacenaphthylene-2-carboxamide] | <6
9 | CC(C)(C)OC(=O)N1C[C@H](NC(=O)c2sc3nccc4c3c2NC(=O)N4c2ccc(Oc3ccccc3)cc2)[C@@H](F)C1 [Example 625, (3S,4S)-tert-Butyl 3-fluoro-4-(4-oxo-5-(4-phenoxyphenyl)-4,5-dihydro-3H-1-thia-3,5,8-triazaacenaphthylene-2-carboxamido)pyrrolidine-1-carboxylate] | 5.9
10 | CC(C)(C)OC(=O)N1CCC(NC(=O)c2sc3nccc4c3c2NC(=O)N4c2ccc(Oc3ccccc3)cc2)CC1 [Example 627, tert-Butyl 4-(4-oxo-5-(4-phenoxyphenyl)-4,5-dihydro-3H-1-thia-3,5,8-triazaacenaphthylene-2-carboxamido)piperidine-1-carboxylate] | 5.9
11 | CC(C)(C)OC(=O)N1CCC[C@@H](NC(=O)c2sc3nccc4c3c2NC(=O)N4c2ccc(Oc3ccccc3)cc2)C1 [Example 628, (R)-tert-Butyl 3-(4-oxo-5-(4-phenoxyphenyl)-4,5-dihydro-3H-1-thia-3,5,8-triazaacenaphthylene-2-carboxamido)piperidine-1-carboxylate] | 5.8
12 | CC(C)c1cccc(N2C(=O)Nc3c(C(=O)N[C@@H]4CCCNC4)sc4nccc2c34)c1 [Example 630, (R)-5-(3-Isopropylphenyl)-4-oxo-N-(piperidin-3-yl)-4,5-dihydro-3H-1-thia-3,5,8-triazaacenaphthylene-2-carboxamide] | 5.9
13 | C=CC(=O)N1CCC[C@@H](NC(=O)c2sc3nccc4c3c2NC(=O)N4c2cccc(-c3ccncc3)c2)C1 [Example 631, (R)—N-(1-Acryloylpiperidin-3-yl)-4-oxo-5-(3-(pyridin-4-yl)phenyl)-4,5-dihydro-3H-1-thia-3,58-triazaacenaphthylene-2-carboxamide] | 5.9
14 | C=CC(=O)N1CCC[C@@H](NC(=O)c2sc3nccc4c3c2NC(=O)N4c2cccc(C3COC3)c2)C1 [Example 632, (R)—N-(1-Acryloylpiperidin-3-yl)-5-(3-(oxetan-3-yl)phenyl)-4-oxo-4,5-dihydro-3H-1-thia-3,5,8-triazaacenaphthylene-2-carboxamide] | 5.9
15 | C=CC(=O)N1CCC[C@@H](NC(=O)c2sc3nccc4c3c2NC(=O)N4c2ccc(OC(C)C)c(C)c2)C1 [Example 633, (R)—N-(1-Acryloylpiperidin-3-yl)-5-(4-isopropoxy-3-methylphenyl)-4-oxo-4,5-dihydro-3H-1-thia-3,5,8-triazaacenaphthylene-2-carboxamide] | 5.8
16 | O=C(N[C@@H]1CCCNC1)c1sc2nccc3c2c1NC(=O)N3c1ccnc(C2CCC2)c1 [Example 634, (R)-5-(2-Cyclobutylpyridin-4-yl)-4-oxo-N-(piperidin-3-yl)-4,5-dihydro-3H-1-thia-3,5,8-triazaacenaphthylene-2-carboxamide] | 5.8
17 | C=CC(=O)N1CCC[C@@H](NC(=O)c2sc3nccc4c3c2NC(=O)N4c2cccc(Oc3ccccc3)n2)C1 [Example 635, (R)—N-(1-Acryloylpiperidin-3-yl)-4-oxo-5-(6-phenoxypyridin-2-yl)-4,5-dihydro-3H-1-thia-3,5,8-triazaacenaphthylene-2-carboxamide] | 5.8
18 | O=C(N[C@@H]1CCCNC1)c1sc2nccc3c2c1NC(=O)N3c1ccc2c(c1)OC(F)(F)O2 [Example 636, (R)-5-(2,2-Difluorobenzo[d][1,3]dioxol-5-yl)-4-oxo-N-(piperidin-3-yl)-4,5-dihydro-3H-1-thia-3,5,8-triazaacenaphthylene-2-carboxamide] | 5.7
19 | CC(C)Oc1cccc(N2C(=O)Nc3c(C(=O)N[C@@H]4CCCNC4)sc4nccc2c34)c1 [Example 637, (R)-5-(3-Isopropoxyphenyl)-4-oxo-N-(piperidin-3-yl)-4,5-dihydro-3H-1-thia-3,5,8-triazaacenaphthlene-2-carboxamide] | 5.7
20 | C=CC(=O)N1CCC[C@@H](NC(=O)c2sc3nccc4c3c2NC(=O)N4c2cccc(C(C)(C)C)c2)C1 [Example 638, (R)—N-(1-Acryloylpiperidin-3-yl)-5-(3-(tert-butyl)phenyl)-4-oxo-4,5-dihydro-3H-1-thia-3,5,8-triazaacenaphthylene-2-carboxamide] | 5.7
21 | CO[C@H]1CN(C(=O)OC(C)(C)C)C[C@@H]1NC(=O)c1sc2nccc3c2c1NC(=O)N3c1ccc(Oc2ccccc2)cc1 [Example 639, (3S,4S)-tert-Butyl 3-methoxy-4-(4-oxo-5-(4-phenoxyphenyl)-4,5-dihydro-3H-1-thia-3,5,8-triazaacenaphthylene-2-carboxamido)pyrrolidine-1-carboxylate] | 5.7
22 | C=CC(=O)N1CCC[C@@H](NC(=O)c2sc3nccc4c3c2NC(=O)N4c2cc(OC(C)C)ccc2C)C1 [Example 640, (R)—N-(1-Acryloylpiperidin-3-yl)-5-(5-isopropoxy-2-methylphenyl)-4-oxo-4,5-dihydro-3H-1-thia-3,5,8-triazaacenaphthylene-2-carboxamide] | 5.6
23 | C=CC(=O)N1CCC[C@@H](NC(=O)c2sc3nccc4c3c2NC(=O)N4c2ccc(S(=O)(=O)C(C)(C)C)cc2)C1 [Example 641, (R)—N-(1-Acryloylpiperidin-3-yl)-5-(4-(tert-butylsulfonyl)phenyl)-4-oxo-4,5-dihydro-3H-1-thia-3,5,8-triazaacenaphthylene-2-carboxamide] | 5.6
24 | O=C(N[C@@H]1CCCNC1)c1sc2nccc3c2c1NC(=O)N3c1ccc(O)cc1 [Example 642, (R)-5-(4-Hydroxyphenyl)-4-oxo-N-(piperidin-3-yl)-4,5-dihydro-3H-1-thia-3,5,8-triazaacenaphthylene-2-carboxamide] | 5.3
25 | CC(=O)c1cccc(N2C(=O)Nc3c(C(=O)N[C@@H]4CCCNC4)sc4nccc2c34)c1 [Example 643, (R)-5-(3-Acetylphenyl)-4-oxo-N-(piperidin-3-yl)-4,5-dihydro-3H-1-thia-3,5,8-triazaacenaphthylene-2-carboxamide] | 5.1
26 | Cc1ccc(OC(C)C)cc1N1C(=O)Nc2c(C(=O)N[C@@H]3CCCNC3)sc3nccc1c23 [Example 644, (R)-5-(5-Isopropoxy-2-methylphenyl)-4-oxo-N-(piperidin-3-yl)-4,5-dihydro-3H-1-thia-3,5,8-triazaacenaphthylene-2-carboxamide] | <5

Same assay, conditions: Lanthascreen tracer competition, 60 minutes incubation; pIC50 = negative log of the IC50 in molar; read-out: BTK_I_binding pIC50 (converted)

Row | SMILES | IC50 [nM]
27 | O=C(N[C@@H]1CCCNC1)c1sc2nccc3c2c1NC(=O)N3c1ccc(OC2CCC2)cc1 [Example 626, (R)-5-(4-Cyclobutoxyphenyl)-4-oxo-N-(piperidin-3-yl)-4,5-dihydro-3H-1-thia-3,5,8-triazaacenaphthylene-2-carboxamide] | 1260
28 | O=C(N[C@@H]1CCCNC1)c1sc2nccc3c2c1NC(=O)N3c1cccc(C2CCCCC2)c1 [Example 629, (R)-5-(3-Cyclohexylphenyl)-4-oxo-N-(piperidin-3-yl)-4,5-dihydro-3H-1-thia-3,5,8-triazaacenaphthylene-2-carboxamide] | 1260
